According to patent publication US9512125B2, “Substituted pyrazolo[3.4-D] pyrimidines as anti-inflammatory agents” (THE REGENTS OF THE UNIVERSITY OF CALIFORNIA, priority 2004, dated 2016):

Test system: HUVEC with or without PBMC (3C, 4H, SAG and LPS systems)
Assay: BioMAP inflammation model systems (3C, 4H, SAG, LPS), cell-based ELISA profiling
Set-up: species or system human
Settings: 4 systems (3C, 4H, SAG, LPS); concentration of 5 micromolar; 24 h stimulation

SMILES | Activity
Cc1ccc(C)c(Cc2nn(C(C)(C)C)c3ncnc(N)c23)c1 [Compound 1] | +
CC(C)(C)n1nc(Cc2cccc(Br)c2)c2c(N)ncnc21 [Compound 2] | +
Cc1cc(C)cc(Cc2nn(C(C)(C)C)c3ncnc(N)c23)c1 [Compound 3] | +
CC(C)(C)n1nc(Cc2ccc(Cl)c(Cl)c2)c2c(N)ncnc21 [Compound 4] | +
Cc1ccc(Cc2nn(C(C)(C)C)c3ncnc(N)c23)cc1C [Compound 5] | +
Cc1cccc(Cc2nn(C(C)(C)C)c3ncnc(N)c23)c1C [Compound 6] | active
CC(C)(C)c1ccc(-c2nn(C(C)(C)C)c3ncnc(N)c23)cc1 [Compound 14] | +
CC(C)(C)n1nc(-c2cccc([N+](=O)[O-])c2)c2c(N)ncnc21 [Compound 16] | +
CC(C)(C)n1nc(-c2ccc([N+](=O)[O-])cc2)c2c(N)ncnc21 [Compound 18] | +
CC(C)(C)n1nc(-c2cccc(OCc3c(Cl)cccc3Cl)c2)c2c(N)ncnc21 [Compound 20] | +
CC(C)(C)n1nc(-c2cccc(OCc3ccccc3)c2)c2c(N)ncnc21 [Compound 21] | +
CC(C)(C)n1nc(-c2cccc(Oc3ccccc3)c2)c2c(N)ncnc21 [Compound 22] | active
CC(C)(C)n1nc(Cc2ccc(Cl)cc2)c2c(N)ncnc21 [Compound 23] | +
CC(C)(C)n1nc(Cc2cccc(O)c2)c2c(N)ncnc21 [Compound 24] | +
CC(C)(C)n1nc(Cc2ccc(O)cc2)c2c(N)ncnc21 [Compound 25] | +
CC(C)(C)n1nc(Cc2ccccc2O)c2c(N)ncnc21 [Compound 26] | +
COc1ccc(Cc2nn(C(C)(C)C)c3ncnc(N)c23)cc1 [Compound 27] | +
COc1ccccc1Cc1nn(C(C)(C)C)c2ncnc(N)c12 [Compound 28] | +
CC(C)(C)n1nc(CCc2ccccc2)c2c(N)ncnc21 [Compound 29] | +
Cc1cccc(Cc2nn(C(C)(C)C)c3ncnc(N)c23)c1 [Compound 32] | +
Cc1ccc(Cc2nn(C(C)(C)C)c3ncnc(N)c23)cc1 [Compound 33] | +
CC(c1ccccc1)c1nn(C(C)(C)C)c2ncnc(N)c12 (stereo not shown) [Compound 34] | +

SMILES | Activity
CC(C)(C)n1nc(CC2CCCC2)c2c(N)ncnc21 [Compound 35] | +
CC(C)(C)n1nc(-c2ccccc2Cl)c2c(N)ncnc21 [Compound 37] | +
CC(C)(C)n1nc(C2CCCC2)c2c(N)ncnc21 [Compound 38] | +
Cc1cccc(-c2nn(C(C)(C)C)c3ncnc(N)c23)c1 [Compound 39] | active
CC(C)(C)n1nc(-c2ccccc2OCc2ccccc2)c2c(N)ncnc21 [Compound 40] | +
COC(=O)Cn1nc(Cc2cccc3ccccc23)c2c(N)ncnc21 [Compound 42] | +
CC(C)Cc1n[nH]c2ncnc(N)c12 [Compound 44] | +
Nc1ncnc2[nH]nc(Cc3ccccc3)c12 [Compound 45] | +
Cc1n[nH]c2ncnc(N)c12 [Compound 46] | +
Nc1ncnc2[nH]nc(-c3ccc4ccccc4c3)c12 [Compound 47] | active
Nc1ncnc2c1c(-c1ccccc1)nn2-c1ccccc1 [Compound 49] | +
CC(C)n1cc(-c2cccc(O)c2)c2c(N)ncnc21 [Compound 50] | active
COCCn1nc(-c2ccccc2)c2c(N)ncnc21 [Compound 51] | +
COCCn1nc(-c2cccc(O)c2)c2c(N)ncnc21 [Compound 52] | active
CC(C)n1cc(-c2cccc(O)c2)c2c(NCc3ccccc3)ncnc21 [Compound 53] | active
CNc1ncnc2c1c(-c1cccc(O)c1)cn2C(C)C [Compound 55] | +
CNc1ncnc2c1c(-c1cccc(N)c1)nn2C(C)C [Compound 56] | +
Clc1ncnc2c1c(-c1ccccc1)nn2Cc1ccccc1 [Compound 57] | +
Cn1nc(Cc2ccccc2Br)c2c(N)ncnc21 [Compound 58] | +
CC(C)(C)n1nc(Cc2c(Cl)cccc2Cl)c2c(N)ncnc21 [Compound 60] | active
Cn1nc(Cc2ccccc2Cl)c2c(N)ncnc21 [Compound 61] | +
Cc1sccc1Cc1n[nH]c2ncnc(N)c12 [Compound 66] | active

SMILES | Activity
Cc1sccc1Cc1nn(C(C)(C)C)c2ncnc(N)c12 [Compound 67] | active
CC(C)(C)n1nc(Cc2ccc(Cl)cc2Cl)c2c(N)ncnc21 [Compound 68] | +
CC(C)(C)n1nc(Cc2ccc(F)cc2Cl)c2c(N)ncnc21 [Compound 69] | +
CCOCCn1nc(Cc2ccccc2Cl)c2c(N)ncnc21 [Compound 70] | +
COC(=O)CCCn1nc(Cc2ccccc2Cl)c2c(N)ncnc21 [Compound 73] | +
Nc1ncnc2c1c(Cc1ccccc1Cl)nn2CCCCO [Compound 74] | +
Nc1ncnc2c1c(Cc1ccccc1Cl)nn2C1CCC(O)CC1 (stereo not shown) [Compound 75] | +
CC(C)(C)n1nc(C2(c3ccccc3Cl)CC2)c2c(N)ncnc21 [Compound 77] | active
CC(C)(C)n1nc(Cc2ccc(F)cc2F)c2c(N)ncnc21 [Compound 78] | active
CC(C)(C)n1nc(Cc2cc(F)ccc2F)c2c(N)ncnc21 [Compound 79] | active
CN(C)c1ncnc2c1c(Cc1ccccc1Cl)nn2C(C)(C)C [Compound 80] | active
CC(C)(C)n1nc(Cc2c(F)cccc2F)c2c(N)ncnc21 [Compound 81] | active
CC(C)(C)n1nc(Cc2cccc(F)c2F)c2c(N)ncnc21 [Compound 82] | active
CCCn1nc(Cc2ccccc2Cl)c2c(N)ncnc21 [Compound 83] | active
CCCCCn1nc(Cc2ccccc2Cl)c2c(N)ncnc21 [Compound 84] | active
CCC(C)CCn1nc(Cc2ccccc2Cl)c2c(N)ncnc21 (stereo not shown) [Compound 85] | active
CC(C)(C)n1nc(-c2cc3ccccc3s2)c2c(N)ncnc21 [Compound 86] | active
CCCCCCn1nc(Cc2ccccc2Cl)c2c(N)ncnc21 [Compound 87] | active
CC(C)(C)n1nc(-c2ccc(-c3ccccc3)cc2)c2c(N)ncnc21 [Compound 88] | active
CCCCn1nc(Cc2ccccc2Cl)c2c(N)ncnc21 [Compound 89] | active
